The source of these data is patent US20030170249A1, “Vaccines directed to cancer-associated carbohydrate antigens” (priority 1999, published 2003).

Where two headings read alike, the source gives them in different places. Where no end group is shown, it is not given here.

In one series the test system is V alpha 14 TCR. Conditions: cited from earlier work.
The next series relates to V alpha 14 NKT cells. As to conditions: cited from earlier work.
The test system of series [1] is B16 melanoma and mouse colonic carcinoma Colon 26. Conditions: mice bearing various tumors; cited from earlier work.
The next series concerns MHC Class I Kb / Db. Conditions: peptides binding MHC Class I Kb; cited from earlier work.
A further series has as its system antibody to Le^y. As to conditions: cited from earlier work.
Series [2] relates to B16 melanoma cells of clones F-1 or F-10. The series is described as follows: Active immunization with GM3 lactone, B16 melanoma development. As to conditions: immunized BALB/c mice. The class given is in vivo. The procedure: Ten BALB/c mice were immunized with native GM3 or GM3 lactone coated on acid-treated Salmonella minnesota. Immunization was carried out by intravenous injection of 200 μl of the GM3 or GM3 lactone preparation once per week for 4 weeks. Subsequently, 1.0×10^5 B16 melanoma cells of clones F-1 or F-10, were subcutaneously injected into the back of the mice and tumor growth was observed after 20 days. As controls, other glycolipids, such as paragloboside coated on acid-treated Salmonella minnesota, and Salmonella minnesota alone, were used in the same amounts as discussed above.
In the table, the numbers indicate the number of animal which died over the total number of animals immunized.

For series [3] the following is noted: cited from earlier work.
For series [4], the system named is TA3Ha cells. Briefly: Tumor growth suppression by vaccination with Tn antigen (A-OSM or A-BSM), Ribi adjuvant and cyclophosphamide. The class given is in vivo, mouse. As to conditions: CP only; 700 TA3Ha cells i.p. The method, then: Tumor growth suppression was tested using A-OSM or A-BSM with Ribi adjuvant, which is essentially composed of trehalose dimycolate and monophosphoryl Lipid A, the effective component of mycobacteria known to stimulate immune response of T as well as B cells (Ribi et al., Clin. Immunol. Newsletter 6:33-36, 1985). A-OSM and A-BSM were produced by treatment with neuraminidase as described above. […] For example, 100 μg of A-OSM or A-BSM were mixed with 500 μg of complete Ribi adjuvant and injected subcutaneously at day −7 (i.e., 7 days before tumor cell inoculation). On day 0, 700 TA3Ha cells were injected intraperitoneally. On day 1, CP (75 mg/kg) was injected intraperitoneally. On days 2, 5, 12, and 19, 100 μg antigen/500 μg Ribi adjuvant complex was injected subcutaneously. Another experimental group was injected with CP-Ribi on days 2, 5, 12, and 19, respectively.

Series [5] concerns TA3Ha cells. Briefly: Synthetic Tn-KLH/Ribi tumor vaccine, TA3Ha challenge i.p. The class given is in vivo, mouse. As to conditions: control groups; TA3Ha i.p. day 0, CP day 1.
Procedure: Mice were preimmunized at day −7 with 50 μg of synthetic Tn/Ribi, s.c. and were challenged with TA3Ha cells, i.p. at day 0.
Mice were immunized with 30 μg of monomeric Tn-KLH/Ribi or dimeric Tn-KLH/Ribi on days −7, 2, 5, 12 and 19.

Turning to `CCCCCCCCCCCCCCCCCCCCCCCCCC(=O)N[C@@H](CO[C@H]1O[C@H](CO)[C@H](O)[C@H](O)[C@H]1O)[C@H](O)[C@H](O)CCCCCCCCCCCCCC` [alpha-GalCer], the “binding to V alpha 14 TCR” value in the series with V alpha 14 TCR is “bind V alpha 14 TCR”. Also, the “proliferation of V alpha 14 NKT cells” value with V alpha 14 NKT cells is given as “stimulate proliferation”. Moreover, in series [1], the “tumor growth and metastasis” value is “abrogated tumor growth and metastasis”.
Take “Di-Gal (Galα1-4Gal) oligosaccharide linked to V or Q of RGYVYQGL: di-Gal linked to MHC Class I Kb binding peptide RGYVYQGL (also: di-Gal (Galα1-4Gal) linked to V or Q)”: in the series on MHC Class I Kb / Db, the “cytotoxic T cell response to the oligosaccharide residue” value is listed as “elicited a cytotoxic T cell response”.
In the case of “APWLYGPA [peptide selected from phage display library with antibody to Le^y]”, the “binding of the antibody to Le^y” value in the series on antibody to Le^y is listed as “inhibited binding”.
With GM3, the tumor growth reduced entry in series [2] is on record as “not”.
For “Di-Gal (Galα1-4Gal) oligosaccharide linked to N or P of FAPGNYPAL: di-Gal linked to MHC Class I Kb binding peptide FAPGNYPAL (also: di-Gal (Galα1-4Gal) linked to N or P)”, in the series on MHC Class I Kb / Db, the “cytotoxic T cell response to the oligosaccharide residue” value is on record as “elicited a cytotoxic T cell response”.
GM3 lactone: in series [2], the tumor growth reduced result was “reduced”. Moreover, the “stability of the structure” value is reported as “relatively stable” in series [3] (acidic to neutral pH) and “unstable” in series [3] (alkaline pH).
`O=P1(N(CCCl)CCCl)NCCCO1` (stereo not shown) [CP, Cyclophosphamide]: in the series on TA3Ha cells [4], the “most animals had died by” value is 20 to 30 days and the tumor growth suppression result is on record as “some tumor growth suppression”. Also, the “survival of tumor challenge” value in the series on TA3Ha cells [5] is on record as “did not survive tumor challenge”.
